Measured values taken from ChEMBL document CHEMBL1201862, “PubChem BioAssay data set” (2004).
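Step 1: Grow cells in 96-well plates. Step 2: Expose to compound for 48 hours at 5 concentrations. Step 3: Interpolate endpoints linearly; if unreached, use highest concentration. GI50 is the concentration that inhibits growth by half.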 Calls of active or inactive are those of the source. Rule as the data show it: active = GI50 up to about 1.1 µM and inactive = higher.

Legend:
Experiment in all cases: NCI tumour cell line growth inhibition, 48 h
[1] = tested on: SN12C
[2] = tested on: M14
[3] = tested on: SF-268
[4] = tested on: CCRF-CEM
[5] = tested on: RPMI-8226
[6] = tested on: TK-10
[7] = tested on: HT-29
[8] = tested on: OVCAR-5
[9] = tested on: SK-MEL-28
[10] = tested on: UACC-62
[11] = tested on: SNB-19
[12] = tested on: SK-MEL-2
[13] = tested on: NCI-H23
[14] = tested on: UACC-257
[15] = tested on: Malme-3M
[16] = tested on: SNB-75
[17] = tested on: HCT-116
[18] = tested on: SK-OV-3
[19] = tested on: HL-60
[20] = tested on: K562

Measured: GI50

C/C1=C\C=C(\C(C)C)CC/C(C(=O)O)=C\CC/C(C)=C/CC1 [NEOCROTOCEMBRANEIC ACID]
inactive: [1] 21.2 µM | [2] 29 µM | [3] 32.9 µM | [4] 19.5 µM | [5] 19.3 µM | [6] 31.8 µM | [7] 32 µM | [8] 29.3 µM | [9] 24.6 µM | [10] 13.1 µM | [11] 24.9 µM | [12] 18.1 µM | [13] 20.7 µM | [14] 22.5 µM | [15] 23.2 µM | [16] 33.7 µM | [17] 15.9 µM | [18] 27.6 µM | [19] 24.8 µM | [20] 26.1 µM

Brc1nc2c3ccccc3ncn2c1Br
inactive: [1] 30.1 µM | [2] 38.5 µM | [3] 82.6 µM | [4] 25.5 µM | [5] 23.4 µM | [6] 56.4 µM | [7] 29.3 µM | [8] 64.9 µM | [9] 82 µM | [10] 16.4 µM | [11] 36.9 µM | [12] 27.5 µM | [13] 20.7 µM | [14] 33 µM | [15] 13.3 µM | [16] 20.1 µM | [17] 37.3 µM | [18] 38.5 µM | [19] 22.5 µM | [20] 31.3 µM
